# Experimental data taken from the supplement of paper PMC9663587.
# Columns and labels:
# senexin b = compound: CN1CCN(C(=O)c2ccc3cc(CCNc4ncnc5ccc(C#N)cc45)ccc3c2)CC1 [senexin b]
# BSJ-01-175 = compound: CN(C)C/C=C/C(=O)Nc1ccc(O[C@@H]2CCC[C@@H](Nc3ncc(Cl)c(-c4c[nH]c5ccccc45)n3)C2)cc1 [BSJ-01-175]
# Ceritinib/LDK378 = compound: Cc1cc(Nc2ncc(Cl)c(Nc3ccccc3S(=O)(=O)C(C)C)n2)c(OC(C)C)cc1C1CCNCC1 [Ceritinib/LDK378]
# Rucaparib = compound: CNCc1ccc(-c2[nH]c3cc(F)cc4c3c2CCNC4=O)cc1 [Rucaparib]
# Tivantinib/ARQ197 = compound: O=C1NC(=O)[C@@H](c2cn3c4c(cccc24)CCC3)[C@@H]1c1c[nH]c2ccccc12 [Tivantinib/ARQ197]
# Paclitaxel = compound: CC(=O)O[C@H]1C(=O)[C@@]2(C)[C@H]([C@H](OC(=O)c3ccccc3)[C@]3(O)C[C@H](OC(=O)[C@H](O)[C@@H](NC(=O)c4ccccc4)c4ccccc4)C(C)=C1C3(C)C)[C@]1(OC(C)=O)CO[C@@H]1C[C@@H]2O [Paclitaxel]
# AZD6738 = compound: C[C@@H]1COCCN1c1cc(C2([S@](C)(=N)=O)CC2)nc(-c2cc[nH]c3nccc2-3)n1 [AZD6738]
# THZ531 [1] = compound: T1, CN(C)C/C=C/C(=O)Nc1ccc(C(=O)N2CCC[C@@H](Nc3ncc(Cl)c(-c4c[nH]c5ccccc45)n3)C2)cc1 [THZ531]
# Cediranib/AZD2171 = compound: COc1cc2c(Oc3ccc4[nH]c(C)cc4c3F)ncnc2cc1OCCCN1CCCC1 [Cediranib/AZD2171]
# Pictilisib/GDC0941 = compound: CS(=O)(=O)N1CCN(Cc2cc3nc(-c4cccc5[nH]ncc45)nc(N4CCOCC4)c3s2)CC1 [Pictilisib/GDC0941]
# BSJ-03-123 = compound: CC(=O)c1c(C)c2cnc(Nc3ccc(N4CCN(CCOCCOCCOCCNC(=O)COc5cccc6c5C(=O)N(C5CCC(=O)NC5=O)C6=O)CC4)cn3)nc2n(C2CCCC2)c1=O [BSJ-03-123]; test: GR value, 72 h; higher = faster growth (1 = untreated, <0 = killing);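 further: breast cancer and non-malignant breast epithelial lines, nine half-log doses, viable cells counted by Hoechst and LIVE/DEAD dye imaging versus time-zero plates and DMSO controls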
# [2] = compound: CCc1cnn2c(NCc3ccc[n+]([O-])c3)cc(N3CCCC[C@H]3CCO)nc12; test: as above
# [3] = compound: CCN1CCN(Cc2ccc(Nc3ncc(F)c(-c4cc(F)c5nc(C)n(C(C)C)c5c4)n3)nc2)CC1; test: as above
# YKL-5-124 = compound: C=CC(=O)Nc1ccc(C(=O)Nc2[nH]nc3c2CN(C(=O)N[C@H](CN(C)C)c2ccccc2)C3(C)C)cc1 [YKL-5-124]; test: as above
# LEE011/Ribociclib = compound: CN(C)C(=O)c1cc2cnc(Nc3ccc(N4CCNCC4)cn3)nc2n1C1CCCC1 [LEE011/Ribociclib]; test: as above
# [4] = compound: CC(=O)c1c(C)c2cnc(Nc3ccc(N4CCNCC4)cn3)nc2n(C2CCCC2)c1=O; test: as above
# THZ1 = compound: CN(C)C/C=C/C(=O)Nc1ccc(C(=O)Nc2cccc(Nc3ncc(Cl)c(-c4c[nH]c5ccccc45)n3)c2)cc1 [THZ1]; test: as above
# THZ531 [5] = compound: T1, THZ531; test: as above
# 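Wherever GR50, 72 h is given: breast cancer and non-malignant breast epithelial cell lines, Deep Dye Drop or Dye Drop imaging, nine half-log doses, GR normalized to time-zero plates and DMSO-only controls.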
cell line,measurement,setting,value
ZR751,"GR50, 72 h",senexin b,> 10 µM
same,"GR50, 72 h",BSJ-01-175,3.46 µM
same,"GR50, 72 h",Ceritinib/LDK378,3.79 µM
same,"GR50, 72 h",Rucaparib,> 10 µM
same,"GR50, 72 h",Tivantinib/ARQ197,0.657 µM
same,"GR50, 72 h",Paclitaxel,0.0088 µM
same,"GR50, 72 h",AZD6738,> 10 µM
same,"GR50, 72 h",THZ531 [1],0.427 µM
same,"GR50, 72 h",Cediranib/AZD2171,> 10 µM
same,"GR50, 72 h",Pictilisib/GDC0941,0.672 µM
same,GR value,BSJ-03-123; 0.001 µM,0.927 GR
same,GR value,BSJ-03-123; 0.003162 µM,0.911 GR
same,GR value,BSJ-03-123; 0.01 µM,0.863 GR
same,GR value,BSJ-03-123; 0.03162 µM,0.788 GR
same,GR value,BSJ-03-123; 0.1 µM,0.838 GR
same,GR value,BSJ-03-123; 0.3162 µM,0.697 GR
same,GR value,BSJ-03-123; 1 µM,0.625 GR
same,GR value,BSJ-03-123; 3.162 µM,0.617 GR
same,GR value,BSJ-03-123; 10 µM,0.22 GR
same,GR value,[2]; 0.0001 µM,1.03 GR
same,GR value,[2]; 0.0003162 µM,1.04 GR
same,GR value,[2]; 0.001 µM,1.02 GR
same,GR value,[2]; 0.003162 µM,0.969 GR
same,GR value,[2]; 0.01 µM,1.02 GR
same,GR value,[2]; 0.03162 µM,0.644 GR
same,GR value,[2]; 0.1 µM,-0.456 GR
same,GR value,[2]; 0.3162 µM,-0.359 GR
same,GR value,[2]; 1 µM,-0.434 GR
same,GR value,[3]; 0.001 µM,0.95 GR
same,GR value,[3]; 0.003162 µM,0.94 GR
same,GR value,[3]; 0.01 µM,0.843 GR
same,GR value,[3]; 0.03162 µM,0.604 GR
same,GR value,[3]; 0.1 µM,0.461 GR
same,GR value,[3]; 0.3162 µM,0.366 GR
same,GR value,[3]; 1 µM,0.351 GR
same,GR value,[3]; 3.162 µM,0.309 GR
same,GR value,[3]; 10 µM,0.38 GR
same,GR value,YKL-5-124; 0.001 µM,0.57 GR
same,GR value,YKL-5-124; 0.003162 µM,0.342 GR
same,GR value,YKL-5-124; 0.01 µM,0.325 GR
same,GR value,YKL-5-124; 0.03162 µM,0.282 GR
same,GR value,YKL-5-124; 0.1 µM,0.254 GR
same,GR value,YKL-5-124; 0.3162 µM,0.238 GR
same,GR value,YKL-5-124; 1 µM,0.239 GR
same,GR value,YKL-5-124; 3.162 µM,0.223 GR
same,GR value,YKL-5-124; 10 µM,0.128 GR
same,GR value,LEE011/Ribociclib; 0.001 µM,0.912 GR
same,GR value,LEE011/Ribociclib; 0.003162 µM,0.814 GR
same,GR value,LEE011/Ribociclib; 0.01 µM,0.881 GR
same,GR value,LEE011/Ribociclib; 0.03162 µM,0.801 GR
same,GR value,LEE011/Ribociclib; 0.1 µM,0.812 GR
same,GR value,LEE011/Ribociclib; 0.3162 µM,0.667 GR
same,GR value,LEE011/Ribociclib; 1 µM,0.737 GR
same,GR value,LEE011/Ribociclib; 3.162 µM,0.603 GR
same,GR value,LEE011/Ribociclib; 10 µM,0.351 GR
same,GR value,[4]; 0.0003162 µM,1.02 GR
same,GR value,[4]; 0.001 µM,0.998 GR
same,GR value,[4]; 0.003162 µM,1.03 GR
same,GR value,[4]; 0.01 µM,1.02 GR
same,GR value,[4]; 0.03162 µM,1.02 GR
same,GR value,[4]; 0.1 µM,0.844 GR
same,GR value,[4]; 0.3162 µM,0.719 GR
same,GR value,[4]; 1 µM,0.637 GR
same,GR value,[4]; 3.162 µM,0.489 GR
same,GR value,THZ1; 0.0001 µM,1.03 GR
same,GR value,THZ1; 0.0003162 µM,1.02 GR
same,GR value,THZ1; 0.001 µM,0.935 GR
same,GR value,THZ1; 0.003162 µM,0.967 GR
same,GR value,THZ1; 0.01 µM,0.949 GR
same,GR value,THZ1; 0.03162 µM,0.915 GR
same,GR value,THZ1; 0.1 µM,0.816 GR
same,GR value,THZ1; 0.3162 µM,0.748 GR
same,GR value,THZ1; 1 µM,-0.165 GR
same,GR value,THZ531 [5]; 0.0001 µM,1.06 GR
same,GR value,THZ531 [5]; 0.0003162 µM,0.851 GR
same,GR value,THZ531 [5]; 0.001 µM,0.958 GR
same,GR value,THZ531 [5]; 0.003162 µM,0.936 GR
same,GR value,THZ531 [5]; 0.01 µM,1.03 GR
same,GR value,THZ531 [5]; 0.03162 µM,0.969 GR
same,GR value,THZ531 [5]; 0.1 µM,0.991 GR
same,GR value,THZ531 [5]; 0.3162 µM,0.856 GR
same,GR value,THZ531 [5]; 1 µM,-0.208 GR
